Experimental data as given in BindingDB's records for doi:10.7270/Q2KH0KWR (Burnham Center For Chemical Genomics, 2012).

What follows are molecules tested against T1, Tyrosine-protein phosphatase non-receptor type 5 (Homo sapiens, UniProt P54829) (assay: PTPN5 inhibition measured colorimetrically – biochemical, colorimetric absorbance, orthogonal assay for STEP inhibitor project, dose response (AID 624207)). Details: not given.
T1 sequence (P54829 whole entry): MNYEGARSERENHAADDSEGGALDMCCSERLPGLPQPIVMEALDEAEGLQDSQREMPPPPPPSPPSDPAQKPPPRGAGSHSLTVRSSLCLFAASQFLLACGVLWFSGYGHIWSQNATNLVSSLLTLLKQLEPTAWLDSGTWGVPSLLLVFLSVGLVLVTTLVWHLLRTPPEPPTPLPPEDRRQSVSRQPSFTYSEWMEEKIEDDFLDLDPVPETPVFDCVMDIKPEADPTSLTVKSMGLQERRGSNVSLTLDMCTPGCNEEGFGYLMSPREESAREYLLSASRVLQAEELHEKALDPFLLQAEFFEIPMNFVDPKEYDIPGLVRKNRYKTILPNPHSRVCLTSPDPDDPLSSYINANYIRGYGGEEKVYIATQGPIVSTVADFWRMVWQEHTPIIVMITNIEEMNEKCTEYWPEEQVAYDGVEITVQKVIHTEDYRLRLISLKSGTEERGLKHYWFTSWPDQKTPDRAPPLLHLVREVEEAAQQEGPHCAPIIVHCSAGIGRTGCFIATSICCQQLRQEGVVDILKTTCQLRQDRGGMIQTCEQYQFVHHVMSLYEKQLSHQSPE

| SMILES | IC50 [µM] |
| --- | --- |
| O=C(C=Cc1ccc(Cl)cc1)NC(=S)Nc1ccc(C(=O)O)cc1 | > 80 |
| NS(=O)(=O)c1ccccc1 [sodium;phenylsulfonylazanide] | 73 |
| COc1ccc(NC(=S)N(CCC(C)C)C2CCN(C(C)C)CC2)cc1Cl [3-(3-chloranyl-4-methoxy-phenyl)-1-(3-methylbutyl)-1-(1-propan-2-ylpiperidin-4-yl)thiourea] | 10.6 |
| Cc1c(C)n(C(=O)CSc2nc3ccccc3[nH]2)c2ccccc12 [2-(1H-benzimidazol-2-ylthio)-1-(2,3-dimethyl-1-indolyl)ethanone] | > 80 |
| O=C(NN=Cc1ccc(F)cc1)c1cc(-c2ccc3c(c2)OCO3)n[nH]1 [3-(1,3-benzodioxol-5-yl)-N-[(E)-(4-fluorobenzylidene)amino]-1H-pyrazole-5-carboxamide] | > 80 |
| C=c1c(O)c(O)c(=C2C(=O)C(=O)C(C)C(=O)C2=O)c(O)c1O (configuration not stated) [(3E)-5-hydroxy-6-methyl-3-(2,3,5-trihydroxy-4-methyl-6-oxo-1-cyclohexa-2,4-dienylidene)cyclohex-5-ene-1,2,4-trione] | > 80 |
| CCN1CCN(C(=S)c2ccc(OCC(=O)NCc3ccccc3)cc2)CC1 [2-[4-(4-ethylpiperazin-1-yl)carbothioylphenoxy]-N-(phenylmethyl)ethanamide] | > 80 |
| CCc1ccc(NC(=O)Cc2cn(C)c3ccccc23)cc1 | > 80 |
| CC(=O)N1CCC(N(CCN2CCOCC2)C(=S)Nc2ccc(C)cc2)CC1 | > 80 |
| COc1ccc(-n2nc(C(=O)NCC(=O)Nc3ccccn3)c3ccccc3c2=O)cc1Cl [3-(3-chloranyl-4-methoxy-phenyl)-4-oxidanylidene-N-[2-oxidanylidene-2-(pyridin-2-ylamino)ethyl]phthalazine-1-carboxamide] | > 80 |
| CCOC(=O)c1sc2nc3c(SCC(=O)O)cc(C(=O)c4ccccc4O)cn3c(=O)c2c1C [MLS-0266851.0001] | > 80 |
| CCc1c(C)[nH]n(-c2ccc(Oc3ccccc3)c(S(=O)(=O)O)c2)c1=O [5-(4-ethyl-5-methyl-3-oxo-1H-pyrazol-2-yl)-2-phenoxybenzenesulfonic acid] | > 80 |
| O=[N+]([O-])c1ccc(O)c(Nc2ncnc3ccccc23)c1 [4-nitro-2-(4-quinazolinylamino)phenol] | > 80 |
| CCN(c1ccccc1)S(=O)(=O)c1cc(C(=O)OCC(=O)c2c(N)n(C)c(=O)n(C)c2=O)ccc1C [[2-(4-amino-1,3-dimethyl-2,6-dioxopyrimidin-5-yl)-2-oxoethyl] 3-[ethyl(phenyl)sulfamoyl]-4-methylbenzoate] | > 80 |
| O=C1C(=O)N(CCCO)C(c2ccc(Br)cc2)C1C(=O)c1ccc(Br)cc1 (configuration not stated) [(4E)-5-(4-bromophenyl)-4-[(4-bromophenyl)-oxidanyl-methylidene]-1-(3-oxidanylpropyl)pyrrolidine-2,3-dione] | 41.5 |
| COc1ccc(NC(S)=NCCN2CCC(C)CC2)cc1Cl [1-(3-chloro-4-methoxyphenyl)-3-[2-(4-methyl-1-piperidinyl)ethyl]thiourea] | 18.2 |
| Cc1ccc(-c2nc(NC(=O)CSc3cc(C)c4ccccc4n3)ns2)cc1 [2-[(4-methyl-2-quinolyl)thio]-N-[5-(p-tolyl)-1,2,4-thiadiazol-3-yl]acetamide] | > 80 |
| Cn1cc(CC(=O)Nc2cccc(C#N)c2)c2ccccc21 [N-(3-cyanophenyl)-2-(1-methyl-1H-indol-3-yl)acetamide] | > 80 |
| Cc1ccc(-c2nc3ncccc3o2)cc1NC(=O)CC(C)C | > 80 |
| CC(=O)c1ccc(S(=O)(=O)Nc2cccc(-n3cnnn3)c2)cc1 | > 80 |
| COc1ccc(CN=Nc2nc(O)c(CC(=O)O)s2)cc1OCc1ccc(Cl)cc1Cl [[2-({3-[(2,4-dichlorobenzyl)oxy]-4-methoxybenzylidene}hydrazono)-4-oxo-1,3-thiazolidin-5-yl]acetic acid] | 13.6 |
| CCN(CC)P(=O)(NC(=O)C(Cl)(Cl)Cl)N(CC)CC [MLS000564159] | 77.5 |

Other lines, results leading:

| IC50 [µM] | SMILES |
| --- | --- |
| > 80 | Cc1ccc(NC(=O)CCn2c(=S)oc3ccccc32)cc1F [SMR000564947] |
| > 80 | CCOC(=O)CC(NS(=O)(=O)c1ccc2ncc(C(=O)O)c(O)c2c1)c1ccc(OCC)c(OC)c1 (configuration not stated) [SMR000621519] |
| > 80 | COCCN(C(=S)Nc1c(C)cc(C)cc1C)C(C)c1cccnc1 (configuration not stated) [MLS000584539] |
| 15.7 | CC(C(=O)Nc1ccc(O)cc1C(=O)O)N1C(=O)/C(=C\c2cccs2)SC1=S (configuration not stated) [MLS001157883] |
| > 80 | COc1ccc(NC(=S)N(CCCN2CCC(C)CC2)Cc2cccs2)cc1Cl [MLS000729725] |

Same assay, conditions: inactive by the depositor's call

| SMILES | IC50 [µM] |
| --- | --- |
| Cc1ccc(C(=S)N2CCN(Cc3ccccc3)CC2)s1 [(5-methyl-2-thiophenyl)-[4-(phenylmethyl)-1-piperazinyl]methanethione] | 32 |
| CCOC(=O)N1CCC(N(CCN(C)C)C(=S)Nc2cc(Cl)ccc2C)CC1 [ethyl 4-[(5-chloranyl-2-methyl-phenyl)carbamothioyl-[2-(dimethylamino)ethyl]amino]piperidine-1-carboxylate] | 77.1 |
| COc1ccc(Cl)cc1N=C(S)N(CCCN1CCOCC1)Cc1cn(C)c2ccccc12 [N'-(5-chloro-2-methoxyphenyl)-N-[(1-methyl-1H-indol-3-yl)methyl]-N-(3-morpholin-4-ylpropyl)thiourea] | 36.9 |
| O=C(N/N=C/c1cccnc1)c1ccc(NC(=O)c2cccc(Cl)c2)cc1 [3-chloro-N-[4-[oxo-[(2E)-2-(3-pyridinylmethylidene)hydrazinyl]methyl]phenyl]benzamide] | 45.6 |
| S=C(c1cn(CCOc2ccccc2)c2ccccc12)N1CCCC1 [MLS-0109562.0001] | 41.3 |
| COc1ccc(NC(=S)N2CCC(N(C)CC3CCCO3)CC2)cc1Cl (configuration not stated) [N-(3-chloranyl-4-methoxy-phenyl)-4-[methyl(oxolan-2-ylmethyl)amino]piperidine-1-carbothioamide] | 40.3 |
| COc1cccc(Nc2nn3c(=O)c4ccccc4nc3s2)c1 | 58.2 |
| S=C(c1ccc(Br)cc1)N1CCN(Cc2ccccc2)CC1 [(4-bromophenyl)-[4-(phenylmethyl)-1-piperazinyl]methanethione] | 54.9 |
| O=S(=O)(O)c1cc(O)c2cc(Nc3ccccc3)ccc2c1 | 24.1 |
| CN1CCC2(CC1)N=C(c1ccc(F)cc1)C(=S)N2 | 71.7 |
| COc1ccc(NC(=S)NCCCN2CCCC2)cc1Cl [1-(3-chloro-4-methoxyphenyl)-3-[3-(1-pyrrolidinyl)propyl]thiourea] | 31.1 |

Continued, values first:

| IC50 [µM] | SMILES |
| --- | --- |
| 29.4 | CC(=NNC(=O)c1ccccc1O)c1ccc(NC(=O)Cc2ccccc2)cc1 [MLS001224813] |
| 39.3 | CCN1CCN(C(=S)c2ccc(Cl)c(Cl)c2)CC1 [SMR000143195] |
| 33.5 | COC(=O)c1ccccc1CSc1nsc(/C=C/N(C)C)c1C#N [SMR000549393] |
| 57 | OCCN1CCN(C(=S)c2ccc(Br)cc2)CC1 [MLS000577024] |
| 63.9 | CCN1CCN(C(=S)c2ccc(Br)cc2)CC1 [SMR000198085] |
| 23.8 | Cc1c(CC(=O)O)c(=O)oc2c(C)c(OCc3ccc(F)cc3Cl)ccc12 [MLS001213411] |
| 42 | Cc1cc(C)c2nc(-c3ccccn3)cc(C(=O)Nc3ccc(S(=O)(=O)Nc4onc(C)c4C)cc3)c2c1 [MLS000862518] |
| 40 | N#CNc1nc(O)cc(=O)[nH]1 [MLS000737363] |
| 77 | N=C(NCc1ccc2c(c1)OCO2)NC(=O)c1ccccc1 [SMR000293067] |
